Consider 68 molecules from PubChem BioAssay AID1361 (SRMLSC, 2008).

The structures appear in SMILES notation. The source made the active and inactive calls. No rule for the calls is given here.

The nature of this assay: mitochondrial fusion inhibitors, confirmation, cell-based, chemical genetic, wild-type and mutant (AID 1361). The settings on record: Cell-based mitochondrial fusion phenotype, imaging.
[1] abbreviates: mutant cells, measured here: mutant cell line IC50.

The term IC50 denotes the concentration that gives 50% inhibition. Consider `O=C(N=C1SCC(=O)N1c1ccccc1Cl)c1ccccc1`, for which the IC50 is, setting by setting: (WT cells) > 25 µM (inactive); under setting [1], above 25 µM.
The like results for `O=C(C1=C[C@H](c2csc3ccccc23)C[C@H](OCc2ccc(CO)cc2)O1)N1CCN(Cc2ccccc2)CC1` were, in that order, 4.03 µM and 10.5 µM.
`Cc1ccc(C(C(=O)NC2CCCCC2)N(Cc2ccco2)C(=O)Cc2c[nH]c3ccccc23)o1` (stereo unspecified): the IC50 by setting is: (WT cells) 21.2 µM; under setting [1], above 25 µM.
On to `C/C(N)=C(/C#N)C(=O)COC(=O)c1cc(S(=O)(=O)N2CCCCC2)ccc1C`, for which the IC50 by setting is: (WT cells) > 25 µM (inactive); under setting [1], above 25 µM.
On to `Fc1cccc(-c2cc3nc4c(c(N5CCC6(CC5)OCCO6)n3n2)CCCC4)c1`, for which the IC50 is, setting by setting: (WT cells) > 25 µM (inactive); under setting [1], above 25 µM.
For `O=C(Nc1ccccc1Oc1ccccc1)c1cc([N+](=O)[O-])ccc1Cl`, the IC50 is 6.46 µM (WT cells) and 19.6 µM under setting [1].
As to `Cc1ccc(OCc2n[nH]c(=S)n2-c2ccccc2)cc1C`, the IC50 is 24.4 µM (WT cells) and above 25 µM under setting [1].
Consider `CC(C)(C)[C@H]1C=C(C(=O)N2CCN(Cc3ccccc3)CC2)O[C@@H](OCc2ccc(CO)cc2)C1`, for which the IC50 was 21.7 µM (WT cells) and above 25 µM under setting [1].
In the case of `CCOC(=O)N1CCN(CC(O)COC2CC(C)CCC2C(C)C)CC1` (stereo unspecified), the IC50 reads like this: (WT cells) > 25 µM (inactive); under setting [1], above 25 µM.
The like results for `CCc1cc(-c2n[nH]c(=S)n2-c2ccccc2C)cs1` were, in that order, > 25 µM (inactive) and above 25 µM.
`CCN(Cc1ccccc1)c1ccc(/C=N/NC(=S)NC(C)C)cc1`: the IC50 is 5.04 µM (WT cells) and above 25 µM under setting [1].
On to `CCC1=NN2C(=N)/C(=C\c3cccn3-c3ccc(C)cc3C)C(=O)N=C2S1`, for which the IC50 is, setting by setting: (WT cells) 13.2 µM; under setting [1], above 25 µM.
On to `O=C(NC(=S)NCCC1=CCCCC1)c1ccccc1Br`, for which the IC50 runs as follows: (WT cells) 20.9 µM; under setting [1], above 25 µM.
Regarding `COc1ccc(C2CC(=O)c3cnc(Nc4cc(C)cc(C)c4)nc3C2)cc1` (stereo unspecified), the IC50 was > 25 µM (inactive) (WT cells) and above 25 µM under setting [1].
The like results for `S=C(Nc1ccc(Oc2ccccc2)cc1)NC1CCCCCC1` were, in that order, 5.19 µM and 10 µM.
With `COc1ccc(-c2nc(-c3ccccc3)[nH]c(=O)c2C#N)cc1`, the IC50 (WT cells) is > 25 µM (inactive) and the IC50 under setting [1] was above 25 µM.
For the molecule `Clc1ccc(CSc2nnc(-c3ccncc3)o2)c(Cl)c1`, the IC50 runs as follows: (WT cells) > 25 µM (inactive); under setting [1], above 25 µM.
The matching figures for `O=C(CCN1C(=O)/C(=C/c2cccs2)SC1=S)NC1=NCCS1`: 12.5 µM and above 25 µM.
As to `S=c1[nH]nc(-c2ccc3ccccc3n2)n1-c1cc(Cl)cc(Cl)c1`, the IC50 is, setting by setting: (WT cells) 13.7 µM; under setting [1], above 25 µM.
As to `COC(=O)C1CSc2[nH]c(=O)sc2C1c1ccc(OC)c(OC)c1` (stereo unspecified), the IC50 is > 25 µM (inactive) (WT cells) and above 25 µM under setting [1].
Regarding `Cc1ccc(C(c2nnnn2CCc2ccccc2)N2CCC(C)CC2)cc1` (stereo unspecified), the IC50 was > 25 µM (inactive) (WT cells) and above 25 µM under setting [1].
For `Cc1ccc(CC2SC(=Nc3ccccc3)N(c3ccccc3)C2=O)cc1` (stereo unspecified), the half-inhibitory concentration (IC50) reads like this: (WT cells) 18.7 µM; under setting [1], above 25 µM.
Turning to `O=C(CN1CCN(c2ccccn2)CC1)N1c2ccccc2Sc2ccc(C(F)(F)F)cc21`, the IC50 is, setting by setting: (WT cells) 16 µM; under setting [1], above 25 µM.
Regarding `O=C(CNC(=S)N(Cc1ccccc1)Cc1ccccc1F)NCc1ccc(Cl)cc1`, the IC50 is 5.67 µM (WT cells) and above 25 µM under setting [1].
In the case of `Cc1ccc(NC(=S)Nc2ccc(C(C)C)cc2)cc1S(=O)(=O)N1CCCCCC1`, the IC50 is, setting by setting: (WT cells) 15 µM; under setting [1], above 25 µM.
The matching figures for `Cc1nc2ccccc2c2oc(C(=O)Nc3ccc(C(C)C)cc3)cc12`: > 25 µM (inactive) and above 25 µM.
The matching figures for `CCn1c(O)c(C(c2ccccn2)c2c(O)n(CC)c(=S)[nH]c2=O)c(=O)[nH]c1=S`: > 25 µM (inactive) and above 25 µM.
With `O=c1c2c3c(sc2nc(NCCO)n1CCc1ccccc1)CCCCC3`, the 50% inhibitory concentration (IC50) reads like this: (WT cells) 22.3 µM; under setting [1], above 25 µM.
`CC[n+]1c(SC)ccc2cc(OC)ccc21`: the IC50 by setting is: (WT cells) 11.5 µM; under setting [1], above 25 µM.
The like results for `C/C(=N\N=C(/N)SC1CC(=O)N(c2cccc(Cl)c2)C1=O)c1cccs1` (stereo unspecified) were, in that order, > 25 µM (inactive) and above 25 µM.
The matching figures for `O=S(=O)(NCC(Nc1ccc(Cl)cc1)c1ccccc1)c1ccc(Cl)cc1` (stereo unspecified): > 25 µM (inactive) and above 12.5 µM.
Take `Oc1ccccc1CN(Cc1ccco1)CC(O)COCc1ccc(Cl)cc1` (stereo unspecified): the 50% inhibitory concentration (IC50) (WT cells) was 19.1 µM and the IC50 under setting [1] was above 25 µM.
Regarding `Cc1ccc(-c2cc(-c3ccccc3)c(C#N)c(N)n2)o1`, the IC50 by setting is: (WT cells) > 25 µM (inactive); under setting [1], above 25 µM.
Turning to `CCC(=O)N1CCN(c2ccccc2NC(=O)COc2cc(C)ccc2C(C)C)CC1`, the IC50 runs as follows: (WT cells) > 25 µM (inactive); under setting [1], above 25 µM.
As to `CCc1c(C)nc2[nH]nc(-c3ccccc3)n2c1=O`, the IC50 (WT cells) is > 25 µM (inactive) and the IC50 under setting [1] was above 25 µM.
The like results for `O=C(OC(C(=O)Nc1cccc(C(F)(F)F)c1)c1ccccc1)C1CCCCC1` (stereo unspecified) were, in that order, 9.59 µM and above 25 µM.
The like results for `c1ccc2c(c1)nc(CN1CCOCC1)n1c3ccccc3nc21` were, in that order, > 25 µM (inactive) and above 25 µM.
With `O=C(Nc1ccc(Cl)cc1)N1CCN(c2ccc3nnc(-c4ccc(F)cc4)n3n2)CC1`, the IC50 by setting is: (WT cells) > 25 µM (inactive); under setting [1], above 25 µM.
Take `CC(C)c1ccc(NC(=O)c2sccc2-n2cccc2)cc1`: the IC50 (WT cells) was > 25 µM (inactive) and the IC50 under setting [1] is above 25 µM.
The like results for `CCOC(=O)c1c(NC(=O)OC)sc(C(=O)N(C)C)c1C` were, in that order, > 25 µM (inactive) and above 25 µM.
Consider `NC(=S)n1[nH]c(-c2ccc([N+](=O)[O-])cc2)c(N=Nc2ccc(Cl)cc2)c1=O`, for which the IC50 (WT cells) is 8.34 µM and the half-inhibitory concentration (IC50) under setting [1] was above 25 µM.
The like results for `CC(=O)N(C)c1ccc(OCC(O)Cn2c3ccc(Cl)cc3c3cc(Cl)ccc32)cc1` (stereo unspecified) were, in that order, 4.12 µM and above 25 µM.
Turning to `CC(C)(C)NC(=O)NC(=O)COC(=O)Cc1coc2ccc3ccccc3c12`, the IC50 is, setting by setting: (WT cells) 21.2 µM; under setting [1], above 25 µM.
The matching figures for `COc1ccccc1CNC(=O)c1ccccc1OCc1ccc(F)cc1`: 21.8 µM and above 25 µM.
For the molecule `COc1ccc(-c2noc(-c3ccccc3-c3ccccc3)n2)cc1OC`, the IC50 was > 25 µM (inactive) (WT cells) and above 25 µM under setting [1].
As to `CC1CCN(C(=O)/C=C/c2ccc(C(C)(C)C)cc2)CC1`, the IC50 (WT cells) is > 25 µM (inactive) and the IC50 under setting [1] was above 25 µM.
Turning to `O=Nc1c(O)n(Cc2cccc(Cl)c2)c2ccccc12`, the IC50 (WT cells) is > 25 µM (inactive) and the IC50 under setting [1] is above 25 µM.
Turning to `Cc1ccccc1/C(N)=N/OC(=O)N1c2ccccc2Sc2ccccc21`, the IC50 (WT cells) is 16.6 µM and the 50% inhibitory concentration (IC50) under setting [1] was 22 µM.
Turning to `CSc1nnc(C2CCNCC2)n1C`, the IC50 (WT cells) was > 25 µM (inactive) and the concentration for half-maximal inhibition (IC50) under setting [1] was above 25 µM.
For the molecule `CN1CCN(c2nc(-c3cccnc3)nc3ccccc23)CC1`, the IC50 runs as follows: (WT cells) > 25 µM (inactive); under setting [1], above 25 µM.
The like results for `C=CCC(C(=O)OC)(C(=O)OC)c1ccc([N+](=O)[O-])cn1` were, in that order, > 25 µM (inactive) and above 25 µM.
Regarding `CCc1ccccc1N(CC)C(=O)CCc1nc(-c2ccc(C)cc2)no1`, the IC50 by setting is: (WT cells) 19.6 µM; under setting [1], 23.2 µM.
Consider `CSCc1nnc(NC(=O)c2ccc(S(=O)(=O)N(CC(C)C)CC(C)C)cc2)o1`, for which the IC50 is > 25 µM (inactive) (WT cells) and above 25 µM under setting [1].
With `CNc1oc(C)nc1S(=O)(=O)c1ccc(C)cc1`, the IC50 (WT cells) was > 25 µM (inactive) and the IC50 under setting [1] is above 25 µM.
`O=C(CCSc1ccc(Cl)cc1)NC12CC3CC(CC(C3)C1)C2`: the half-maximal inhibitory concentration (IC50) (WT cells) was 13.1 µM and the IC50 under setting [1] is above 25 µM.
Take `COC(=O)c1ccc(NCC(=O)c2ccccc2)cc1`: the IC50 is > 25 µM (inactive) (WT cells) and above 25 µM under setting [1].
For `Cn1c(CCN2CCN(c3ccccc3)CC2)nc2cc(NC(=O)c3ccco3)ccc21`, the IC50 is > 25 µM (inactive) (WT cells) and above 25 µM under setting [1].
On to `CC(C)C12CN3CCN(CC(C3)C1O)C2` (stereo unspecified), for which the IC50 runs as follows: (WT cells) > 25 µM (inactive); under setting [1], above 25 µM.
In the case of `CN(C)S(=O)(=O)c1cccc(C(=O)NCC2CCCO2)c1` (stereo unspecified), the IC50 reads like this: (WT cells) > 25 µM (inactive); under setting [1], above 25 µM.
As for `CN1/C(=C\C(=O)Nc2cccc(Cl)c2)C(C)(C)c2ccccc21`, the IC50 (WT cells) is 9.74 µM and the IC50 under setting [1] came out at 24.7 µM.
For the molecule `CCn1cc(C(=O)N2CCc3ccccc32)c(=O)c2cc(S(=O)(=O)N(C)C3CCCCC3)ccc21`, the IC50 was > 25 µM (inactive) (WT cells) and above 25 µM under setting [1].
The matching figures for `Cc1ccnc(NS(=O)(=O)c2ccc(N=CC3=C(O)CC(C)(C)CC3=O)cc2)n1`: > 25 µM (inactive) and above 25 µM.
With `CCOc1c(OC(C)=O)ccc(/C=C/c2ccc3cccc(OC(C)=O)c3n2)c1[N+](=O)[O-]`, the IC50 is > 25 µM (inactive) (WT cells) and above 25 µM under setting [1].
`CCC(=O)Nc1ccc(-c2nnc(SCc3ccc(C(=O)Nc4nccs4)cc3)n2CC)cc1`: the IC50 is, setting by setting: (WT cells) > 25 µM (inactive); under setting [1], above 25 µM.
Turning to `COC(=O)C1=C(C)N(C(C)c2ccccc2)C(=O)/C1=C\c1ccco1` (stereo unspecified), the 50% inhibitory concentration (IC50) runs as follows: (WT cells) 24.2 µM; under setting [1], above 25 µM.
The like results for `NC(=S)N/N=C/c1ccccc1OCCSc1ccc(Cl)cc1` were, in that order, 6.86 µM and 12 µM.
The matching figures for `CCC(=Nc1ccc(OC)cc1OC)c1c(O)n(C2CCCCC2)c(=O)[nH]c1=O`: 15.9 µM and above 25 µM.
The like results for `CCC1CCCCN1c1cc(C)nc2cc(-c3cccc(C)c3)nn12` (stereo unspecified) were, in that order, 13.1 µM and above 25 µM.
